# Measurements as given in paper PMC10461232, “Structure-Based Design of Transport-Specific Multitargeted One-Carbon Metabolism Inhibitors in Cytosol and Mitochondria” (Journal of Medicinal Chemistry, 2023).
# Read-outs that look alike come from different tables or passages of the source.
# Key:
# HPAC (RFC/PCFT) cells = test: Proliferation inhibition, HPAC pancreatic adenocarcinoma cells; assay type: cell-based, human; conditions: HPAC cells, folate- and glycine-free RPMI, 25 nM leucovorin, mean (SE)
# Source text: (§1) The RFC-, PCFT-, and FR-null MTXRIIOua^R2–4 (R2), and RFC- (PC43-10), PCFT- (R2/PCFT4), FRα- (RT16), and FRβ- (D4) expressing CHO sublines were previously described.[62]−[64],[76] HPAC pancreatic cancer cells were generously provided by Dr. Yubin Ge (Karmanos Cancer Institute, Detroit, MI). Human pancreatic normal epithelial (HPNE) cells[67] were a gift from M. Oulette (University of Nebraska Medical Center, Omaha, NE). KB human nasopharyngeal carcinoma cells were purchased from the American Type Culture Collection (Manassas, VA). All human cell lines were validated by STR analysis by Genetica DNA Laboratories (Burlington, NC). Cell lines were tested for Mycoplasma by PCR using a Mycloplasma testing kit (Venor GeM Mycoplasma Detection Kit, Sigma). Frozen stocks were generated from authenticated Mycoplasma-free cultures.
# PC43-10 (RFC) CHO cells = test: Growth inhibition, PC43-10 CHO cells expressing human RFC; assay type: cell-based, Chinese hamster; conditions: Cricetulus griseus, 96 h, read-out: IC50 PC43-10 (RFC)
# KB (RFC/PCFT/FRα) cells = test: Growth inhibition, KB nasopharyngeal carcinoma cells; assay type: cell-based, human; conditions: folate-free RPMI 1640, 2 nM leucovorin, mean (SE)
# Description: The CHO cells were cultured in α-minimal essential medium (MEM) supplemented with 10% bovine calf serum (Fisher Scientific), penicillin (1000 U/mL)/streptomycin (1000 μg/mL), and 2 mM L-glutamine at 37 °C with 5% CO2. All of the R2 transfected cells (PC43-10, RT16, R2/PCFT4) were cultured in complete α-MEM media plus 1 mg/mL G418. Prior to the cytotoxicity assays (see below), RT16 and D4 cells were cultured for 3 days in complete folate-free RPMI 1640 (without added folate), and R2/PCFT4 and R2 cells were cultured in complete folate-free RPMI 1640 supplemented with dialyzed fetal bovine serum (Fisher Scientific) and 25 nM leucovorin plus 1 mg/mL G418. KB cells were routinely cultured in folate-free RPMI 1640 medium, supplemented with 10% fetal bovine serum (Fisher Scientific), penicillin-streptomycin solution, and 2 mM L-glutamine at 37 °C with 5% CO2.
# For growth inhibition studies, cells (CHO, KB) were plated in 96-well dishes (∼2500–5000 cells/well, total volume of 200 μL medium) over a range of antifolate concentrations.[69],[77] The medium was folate-free RPMI 1640 with 10% dialyzed serum and antibiotics supplemented with 25 nM leucovorin for experiments with R2, PC43-10, and R2/PCFT4 cells. For experiments with RT16, D4, and KB cells, cells were cultured in folate-free RPMI medium with 10% dialyzed fetal bovine serum and antibiotics; the medium was supplemented with 2 nM leucovorin. […] Incubations were routinely for up to 96 h. Viable cells (reflecting cell viability) were assayed with Cell Titer Blue reagent (Promega, Madison, WI), with fluorescence measured (590 nm emission, 560 nm excitation) with a fluorescence plate reader.
# RT16 (FRα) CHO cells = test: Growth inhibition, RT16 CHO cells expressing human FRα; assay type: cell-based, Chinese hamster
# human GARFTase = biological target: T1, human GARFTase (Homo sapiens, UniProt P22102); test: GARFTase inhibition assay, Ki (10-formyl THF to THF, absorbance 298 nm); assay type: biochemical; conditions: purified His-GARFTase, 40 μM 10-formyl THF, 37 °C; mean (SD), at least 3 replicates
# T1 construct: formyltransferase domain of human GARFTase (residues 808–1010); made in house; host or cells: E. coli Rosetta (DE3)pLysS
# T1 sequence (P22102 808-1010): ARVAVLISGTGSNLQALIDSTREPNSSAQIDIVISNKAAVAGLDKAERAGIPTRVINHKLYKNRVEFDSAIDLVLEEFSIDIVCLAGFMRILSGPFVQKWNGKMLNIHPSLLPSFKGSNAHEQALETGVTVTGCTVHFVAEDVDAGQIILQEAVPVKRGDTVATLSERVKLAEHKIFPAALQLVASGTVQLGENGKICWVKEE
# [1] = system: R2 (MTXRIIOuaR2-4) CHO cells; test: Growth inhibition, transporter-null R2 CHO cells; assay type: cell-based, Chinese hamster; conditions: Cricetulus griseus, 96 h, read-out: IC50 R2
# [2] = system: R2/PCFT4 (PCFT) CHO cells; test: Growth inhibition, R2/PCFT4 CHO cells expressing human PCFT; assay type: cell-based, Chinese hamster; conditions: Cricetulus griseus, 96 h, read-out: IC50 R2/PCFT4 (PCFT)
# D4 (FRβ) CHO cells = test: Growth inhibition, D4 CHO cells expressing human FRβ; assay type: cell-based, Chinese hamster; conditions: for IC50: Cricetulus griseus, CHO
# HPNE (RFC) cells = test: Proliferation inhibition, HPNE normal pancreatic epithelial cells; assay type: cell-based; conditions: Homo sapiens, folate- and glycine-free RPMI, 25 nM leucovorin
# Source text: as §1
# human ATIC = biological target: T2, human ATIC (Homo sapiens, UniProt P31939); test: AICARFTase (ATIC) inhibition assay, Ki; assay type: biochemical; conditions: for Ki: purified His-ATIC, AICARFTase activity, 50 μM 10-formyl THF, 25 °C, mean (SD), at least 3 replicates
# T2 construct: N-terminal His6-tagged full-length human ATIC; made in house; host or cells: E. coli Rosetta (DE3)pLysS
# Description: The cells were grown at 37 °C in 1 L cultures of LB media containing […] and […] until OD600 reached 0.6. Protein expression was induced by the addition of isopropyl β-D1-thiogalactopyranoside (IPTG, 500 μM).
# His-ATIC was purified by Ni-NTA chromatography (Gold Biotechnology).[36] […] His-ATIC was eluted in 1 column volume fractions, 5 times with buffer containing 300 mM imidazole, 25 mM Tris-HCl, pH 7.5, 300 mM NaCl, and 5 mM β-Me. Size exclusion chromatography on a Superdex 200 16/60 (GE Healthcare) column was used for final purification using 20 mM Tris-HCl, pH 7.5, 150 mM NaCl, 50 mM KCl, 5 mM EDTA, and 5 mM dithiothreitol.
# MTHFD2 activities were assayed by a reaction with methylene THF and NAD^+. NADH production was measured by fluorescence (excitation 340 nm, emission 480 nm). Reaction conditions included 100 nM MTHFD2, 5 μM methylene THF, and concentrations of small-molecule inhibitor ranging from 0.02 nM to 2000 nM; NAD^+ (2.5 mM) was added to initiate the reaction. The reaction buffer consisted of 50 mM Tris-HCl, pH 7.5, 250 mM NaCl, 5 mM magnesium chloride, 5% glycerol, and 0.5 mM TCEP. […] To assay SHMT1 or SHMT2 (SHMT1/2) enzymes, a coupled reaction with His-MTHFD2 in 200-fold molar excess was used where the production of NADH was monitored by fluorescence with excitation at 360 nm and emission at 470 nm at 25 °C. The reactions contained 5 nM His-SHMT1/2, 50 μM THF, 20 mM serine, 10 μM His-MTHFD2, 2.5 mM NAD^+, and a range of inhibitor concentrations (final concentrations). The reactions were performed in buffer containing 20 mM sodium phosphate, pH 7.5, 100 mM KCl, 0.2 mM EDTA, and 5 mM β-Me. […] To calculate IC50 values for each inhibitor, initial velocities were graphed as a function of inhibitor concentrations and fit with a three-parameter nonlinear regression (GraphPad Prism 8.0). The equation [Ki = IC50/([S]/KM + 1)] was used to convert IC50’s to Ki values.
# SHMT1 = biological target: T3, SHMT1 (Homo sapiens, UniProt P34896); test: SHMT1 inhibition assay coupled with MTHFD2, Ki; assay type: biochemical; conditions: purified His-SHMT1, 50 μM THF, 25 °C; mean (SD), at least 3 replicates
# T3 construct: full-length SHMT1 with an N-terminal His6-tag; made in house; host or cells: E. coli Rosetta (DE3)pLysS
# T3 sequence (P34896 1-483): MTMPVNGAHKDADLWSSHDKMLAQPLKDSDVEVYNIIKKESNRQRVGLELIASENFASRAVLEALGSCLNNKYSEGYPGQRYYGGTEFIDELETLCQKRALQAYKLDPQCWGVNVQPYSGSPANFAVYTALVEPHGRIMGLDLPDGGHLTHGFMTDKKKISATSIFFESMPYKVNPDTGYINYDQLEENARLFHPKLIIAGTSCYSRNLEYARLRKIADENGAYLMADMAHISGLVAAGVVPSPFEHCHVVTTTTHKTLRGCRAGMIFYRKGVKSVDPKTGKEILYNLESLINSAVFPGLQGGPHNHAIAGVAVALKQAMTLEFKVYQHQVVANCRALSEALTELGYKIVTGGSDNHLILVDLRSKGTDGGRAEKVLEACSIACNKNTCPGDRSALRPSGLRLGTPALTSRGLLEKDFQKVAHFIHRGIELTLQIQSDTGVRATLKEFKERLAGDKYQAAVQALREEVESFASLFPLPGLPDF
# Description: Kinetic measurements were recorded in triplicate using a flat, black-bottom, black-walled 96-well plate (Greiner Bio-One, 655900) and a BioTek Synergy Neo2 Plate Reader. […] To assay SHMT1 or SHMT2 (SHMT1/2) enzymes, a coupled reaction with His-MTHFD2 in 200-fold molar excess was used where the production of NADH was monitored by fluorescence with excitation at 360 nm and emission at 470 nm at 25 °C. The reactions contained 5 nM His-SHMT1/2, 50 μM THF, 20 mM serine, 10 μM His-MTHFD2, 2.5 mM NAD^+, and a range of inhibitor concentrations (final concentrations). The reactions were performed in buffer containing 20 mM sodium phosphate, pH 7.5, 100 mM KCl, 0.2 mM EDTA, and 5 mM β-Me. A BioTek Synergy Neo2 Plate Reader was used to record kinetic measurements in triplicate in a UV-transparent 96-well plate (Costar 3635) for GARFTase and AICARFTase assays and a black-well, black-bottom 96-well plate (Corning 3603). To calculate IC50 values for each inhibitor, initial velocities were graphed as a function of inhibitor concentrations and fit with a three-parameter nonlinear regression (GraphPad Prism 8.0). The equation [Ki = IC50/([S]/KM + 1)] was used to convert IC50’s to Ki values.
# [3] = CHO cells expressing human RFC, 25 nM leucovorin, mean (SE)
# [4] = Cricetulus griseus, 96 h, CHO cells expressing human FRα, 96 h, 2 nM leucovorin, mean (SE), read-out: IC50 RT16 (FRα)
# [5] = transporter-null CHO cells, 25 nM leucovorin, mean (SE)
# [6] = CHO cells expressing human PCFT, 25 nM leucovorin, mean (SE)
# [7] = 96 h, CHO cells expressing human FRβ, 96 h, 2 nM leucovorin, mean (SE), read-out: IC50 D4 (FRβ)
# [8] = CHO cells expressing human FRα, 96 h, 2 nM leucovorin, mean (SE), read-out: IC50 RT16 (FRα)
# T2 sequence (P31939 whole entry): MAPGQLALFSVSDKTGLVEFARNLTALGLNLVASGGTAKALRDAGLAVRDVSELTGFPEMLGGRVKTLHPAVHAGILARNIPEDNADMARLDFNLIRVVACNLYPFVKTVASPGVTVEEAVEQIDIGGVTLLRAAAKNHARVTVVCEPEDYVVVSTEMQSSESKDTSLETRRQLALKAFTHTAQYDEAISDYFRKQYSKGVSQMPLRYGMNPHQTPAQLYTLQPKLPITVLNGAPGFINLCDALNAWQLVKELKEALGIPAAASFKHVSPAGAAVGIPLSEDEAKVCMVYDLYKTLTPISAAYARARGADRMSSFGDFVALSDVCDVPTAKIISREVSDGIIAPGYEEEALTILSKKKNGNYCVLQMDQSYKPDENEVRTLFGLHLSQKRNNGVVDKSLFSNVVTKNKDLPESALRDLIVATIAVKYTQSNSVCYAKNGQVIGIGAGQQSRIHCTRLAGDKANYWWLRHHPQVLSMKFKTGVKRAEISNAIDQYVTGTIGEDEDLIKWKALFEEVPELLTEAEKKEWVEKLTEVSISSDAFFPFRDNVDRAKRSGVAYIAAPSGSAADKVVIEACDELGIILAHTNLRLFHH
Compound,"IC50 (HPAC (RFC/PCFT) cells; Homo sapiens, HPAC)","IC50 (KB (RFC/PCFT/FRα) cells; Homo sapiens, KB)",Ki (human ATIC),IC50 (KB (RFC/PCFT/FRα) cells),Ki (human GARFTase),IC50 [2],IC50 (HPNE (RFC) cells),IC50 (PC43-10 (RFC) CHO cells; [3]),IC50 (RT16 (FRα) CHO cells; [4]),"IC50 [1, 5]","IC50 [2, 6]",IC50 (D4 (FRβ) CHO cells; [7]),IC50 (RT16 (FRα) CHO cells; [8]),also measured
"Nc1nc2ccn(CCCCc3ccc(C(=O)N[C@@H](CCC(=O)O)C(=O)O)c(F)c3)c2c(=O)[nH]1 [Compound 1, (4-(4-(2-Amino-4-oxo-3,4-dihydro-5H-pyrrolo[3,2-d]pyrimidin-5-yl)butyl)-2-fluorobenzoyl)-L-glutamic Acid]",196 nM,1.3 nM,,1.25 nM,3130 nM,479 nM,> 5 µM,,,,,,,"IC50 (PC43-10 (RFC) CHO cells): 224 nM; IC50 (RT16 (FRα) CHO cells; Cricetulus griseus, RT16, read-out: IC50 FRα (cell-based inhibition), Figure 14, from Table 3 (RT16 cells)): 1 nM; IC50 ([1]; CHO): > 1000 nM; IC50 (D4 (FRβ) CHO cells; read-out: IC50 FRβ (cell-based inhibition), Figure 14, from Table 3 (D4 cells)): 1 nM"
"Nc1nc2ccn(CCCSc3ccc(C(=O)N[C@@H](CCC(=O)O)C(=O)O)cc3)c2c(=O)[nH]1 [Compound 7, (4-((3-(2-Amino-4-oxo-3,4-dihydro-5H-pyrrolo[3,2-d]pyrimidin-5-yl)propyl)thio)benzoyl)-L-glutamic Acid]",> 5000 nM,31.5 nM,4.81 µM,31.5 nM,,> 1000 nM,> 5 µM,> 1000 nM,< 3 nM,> 1000 nM,,,3.13 nM,

# The next lines start with results.
"IC50 (HPAC (RFC/PCFT) cells; Homo sapiens, HPAC)","IC50 (KB (RFC/PCFT/FRα) cells; Homo sapiens, KB)",Ki (human ATIC),Compound,IC50 (KB (RFC/PCFT/FRα) cells),Ki (human GARFTase),IC50 [2],IC50 (HPNE (RFC) cells),IC50 (PC43-10 (RFC) CHO cells; [3]),IC50 (RT16 (FRα) CHO cells; [4]),"IC50 [1, 5]","IC50 [2, 6]",IC50 (D4 (FRβ) CHO cells; [7]),IC50 (RT16 (FRα) CHO cells; [8]),also measured
310 nM,6.73 nM,13.4 µM,Nc1nc2ccn(CCCc3ccc(C(=O)N[C@@H](CCC(=O)O)C(=O)O)cc3)c2c(=O)[nH]1 [Compound 2],,,,> 5 µM,41.9 nM,49.9 nM,> 1000 nM,191 nM,2.37 nM,,IC50 (HPAC (RFC/PCFT) cells): 310 nM; difference between D4 (FRβ) and RT16 (FRα) IC50 (D4 (FRβ) CHO cells; RT16 versus D4 CHO cells): 20- to 40 fold
1600 nM,6 nM,0.93 µM,"Nc1nc2ccn(CCCCc3csc(C(=O)N[C@@H](CCC(=O)O)C(=O)O)c3F)c2c(=O)[nH]1 [Compound 14, (4-(4-(2-Amino-4-oxo-3,4-dihydro-5H-pyrrolo[3,2-d]pyrimidin-5-yl)butyl)-3-fluorothiophene-2-carbonyl)-L-glutamic Acid]",,2490 nM,,> 5 µM,> 1000 nM,19.8 nM,> 1000 nM,> 1000 nM,6.2 nM,,"fold better than 1, ATIC (human ATIC; ratio of Ki values relative to compound 1): ~4 fold"
3210 nM,2.58 nM,,Nc1nc2ccn(CCCCc3ccc(C(=O)N[C@@H](CCC(=O)O)C(=O)O)s3)c2c(=O)[nH]1 [Compound 16],,,,> 5 µM,> 1000 nM,< 3 nM,> 1000 nM,> 1000 nM,,2.82 nM,Ki (SHMT1): 1040 nM
